What was measured:
Test in all cases: selective drug sensitivity score (sDSS, relative to normal bone marrow) (sDSS (score)); higher = more potent and effective on the cell line relative to normal bone marrow cells
Conditions in all cases: 72 h
380 = test system: 380
ALL-PO = test system: ALL-PO
ALL-SIL = test system: ALL-SIL
CCRF-CEM = test system: CCRF-CEM
COG-LL-319h = test system: COG-LL-319h
COG-LL-332h = test system: COG-LL-332h
COG-LL-394h = test system: COG-LL-394h
JURKAT = test system: JURKAT
LC4-1 = test system: LC4-1
MHH-CALL-2 = test system: MHH-CALL-2
MHH-CALL-3 = test system: MHH-CALL-3
MHH-CALL-4 = test system: MHH-CALL-4
MN-60 = test system: MN-60
MOLT-16 = test system: MOLT-16
NALL-1 = test system: NALL-1
NALM-16 = test system: NALM-16
NALM-6 = test system: NALM-6
P30-OHKUBO = test system: P30-OHKUBO
PEER = test system: PEER
SEM cells = test system: SEM cells
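Also: ALL cell lines in 384-well plates, five doses spanning 10,000-fold, each plate scaled between vehicle and 100 µmol/L benzalkonium chloride controls, sDSS an adapted area-under-curve metric.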

SMILES | selective drug sensitivity score 380 | selective drug sensitivity score (ALL-PO) | selective drug sensitivity score (ALL-SIL) | selective drug sensitivity score (CCRF-CEM) | selective drug sensitivity score (COG-LL-319h) | selective drug sensitivity score (COG-LL-332h) | selective drug sensitivity score (COG-LL-394h) | selective drug sensitivity score (JURKAT) | selective drug sensitivity score (LC4-1) | selective drug sensitivity score (MHH-CALL-2) | selective drug sensitivity score (MHH-CALL-3) | selective drug sensitivity score (MHH-CALL-4) | selective drug sensitivity score (MN-60) | selective drug sensitivity score (MOLT-16) | selective drug sensitivity score (NALL-1) | selective drug sensitivity score (NALM-16) | selective drug sensitivity score (NALM-6) | selective drug sensitivity score (P30-OHKUBO) | selective drug sensitivity score (PEER) | selective drug sensitivity score (SEM cells)
O=C(Nc1cccc(Nc2ncc(Br)c(NCCc3cnc[nH]3)n2)c1)N1CCCC1 [BX-912] (top concentration 10000 nM) | 8.26 | 14 | 9.36 | 9.96 | 12.7 | 7.56 | -2.24 | -1.34 | 12.3 | 2.86 | 3.06 | 3.06 | -1.44 | 9.06 | 7.36 | -0.14 | 6.46 | 10.9 | 10.6 | 13.4
Cc1c(C(=O)Nc2ccc(N3C[C@@H](C)O[C@@H](C)C3)nc2)cccc1-c1ccc(OC(F)(F)F)cc1 [Sonidegib] (top concentration 10000 nM) | -3.92 | 3.98 | 1.08 | -0.12 | 4.98 | -1.42 | -0.02 | 2.48 | 1.08 | 7.48 | -3.92 | 2.28 | -1.42 | 3.18 | 7.58 | -3.92 | 0.98 | 5.68 | 0.88 | -3.92
N[C@@H]1CCCN(c2c(/C=C3\SC(=O)NC3=O)cccc2-c2ccccc2)C1 [AZD1208] (top concentration 10000 nM) | 14.8 | 8.5 | 0.7 | -4.4 | -4.4 | -2.9 | 1 | -4.2 | -3.8 | 3.7 | -4.4 | 3.9 | -1.8 | -4.4 | 2.4 | -3.2 | -4.4 | -1.1 | -2.7 | -4.4
CC1=NN(c2ccc(C(=O)O)cc2)C(=O)C1=Cc1ccc(-c2cc(C)c(C)cc2[N+](=O)[O-])o1 [C646] (top concentration 25000 nM) | -0.86 | 5.04 | 6.14 | 1.74 | 11.7 | 1.74 | -0.66 | 0.94 | 1.84 | -2.06 | 4.64 | -2.06 | -2.06 | 4.84 | -2.06 | -2.06 | -2.06 | 3.94 | -0.66 | -0.26
Cc1cc(Nc2ncc(Cl)c(Nc3ccccc3S(=O)(=O)C(C)C)n2)c(OC(C)C)cc1C1CCNCC1 [Ceritinib] (top concentration 2500 nM) | 0.36 | -0.94 | 4.36 | -3.34 | 6.66 | -3.44 | 5.16 | -3.44 | 3.06 | -0.04 | -3.44 | -0.74 | -2.64 | -3.44 | -2.14 | -3.44 | -0.74 | -2.44 | -3.44 | -3.44
O=c1[nH]c(C2CCCN2)nc2c1oc1ccc(Cl)cc12 (stereo not given) (top concentration 10000 nM) | 13.1 | -0.2 | 0.6 | 5.8 | 2 | 6.7 | 0.5 | -2.8 | 1.8 | 1 | -0.7 | -1.2 | -2.7 | -0.5 | 0.8 | -1.9 | -0.4 | 1.2 | 0.3 | -1.6
NS(=O)(=O)OC[C@@H]1C[C@@H](n2ccc3c(N[C@H]4CCc5ccccc54)ncnc32)C[C@@H]1O [Pevonedistat] (top concentration 10000 nM) | 8.5 | 12.7 | 13.1 | 16.4 | 12.2 | 20.2 | 2.7 | 12.6 | 10 | 10 | 7.4 | 11.5 | 6.5 | 16.7 | 9.4 | 4.1 | 12.1 | 11.1 | 19.7 | 9.9
Cc1nc(Nc2ncc(C(=O)Nc3c(C)cccc3Cl)s2)cc(N2CCN(CCO)CC2)n1 [Dasatinib] (top concentration 1000 nM) | -2.8 | -0.2 | 41.4 | -2.8 | 9.2 | 17 | 0.3 | -2.8 | -2.8 | -2.8 | -2.8 | -2.8 | -1.7 | -2.8 | -2.8 | -2.8 | 3.3 | 6.1 | 17.2 | -2.4
CCN(CC)Cc1ccc2cc(COC(=O)Nc3ccc(C(=O)NO)cc3)ccc2c1 [Givinostat] (top concentration 1000 nM) | 6.9 | 3.9 | 8.6 | 3.6 | 10.1 | -0.3 | 2.4 | 0.9 | 5.5 | 8.6 | 15.6 | 3.4 | -1.2 | 5.1 | -0.4 | -1 | 1.2 | 3.7 | 6.1 | 4.4
